Results taken from the supplement of paper PMC10307832.

Experiments:
Test in all cases: relative viability (nuclei count vs DMSO), 5 days (fraction); higher = more cells survive
KIN001-266 + Linsitinib = compound: CCN1CCC(CC1)N2C=C(N=N2)CNC3=CC4=C(C(=CN=C4C(=C3)Cl)C#N)NC5=CC(=C(C=C5)F)Cl [KIN001-266] + C[C@]1(O)C[C@@H](c2nc(-c3ccc4ccc(-c5ccccc5)nc4c3)c3c(N)nccn32)C1 [Linsitinib] (partner 1 µM)
Summary of the method: (§1)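 Dosing by pin tool came one day after lung cancer cell lines were seeded in 1536-well plates, using either one drug or a fixed anchor-drug dose plus five library-drug doses (not always all listed) in √10 steps. After 5 days, nuclei were counted on 4× images. Relative viability is treated-well nuclei count divided by vehicle-well nuclei count, and values are medians of duplicate plates.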

KIN001-266 + OSI-027 = compound: CCN1CCC(CC1)N2C=C(N=N2)CNC3=CC4=C(C(=CN=C4C(=C3)Cl)C#N)NC5=CC(=C(C=C5)F)Cl [KIN001-266] + COc1cccc2cc(-c3nc([C@H]4CC[C@H](C(=O)O)CC4)n4ncnc(N)c34)[nH]c12 [OSI-027] (partner 0.5 µM)
Summary of the method: as §1

KIN001-266 + Trametinib = compound: CCN1CCC(CC1)N2C=C(N=N2)CNC3=CC4=C(C(=CN=C4C(=C3)Cl)C#N)NC5=CC(=C(C=C5)F)Cl [KIN001-266] + CC(=O)Nc1cccc(-n2c(=O)n(C3CC3)c(=O)c3c(Nc4ccc(I)cc4F)n(C)c(=O)c(C)c32)c1 [Trametinib] (partner 0.02 µM)
Summary of the method: as §1

KIN001-266 + Lapatinib = compound: CCN1CCC(CC1)N2C=C(N=N2)CNC3=CC4=C(C(=CN=C4C(=C3)Cl)C#N)NC5=CC(=C(C=C5)F)Cl [KIN001-266] + CS(=O)(=O)CCNCc1ccc(-c2ccc3ncnc(Nc4ccc(OCc5cccc(F)c5)c(Cl)c4)c3c2)o1 [Lapatinib] (partner 2 µM)
Summary of the method: as §1

Cell Line	relative viability (KIN001-266 + Linsitinib; first compound 0.08 µM)	relative viability (KIN001-266 + Linsitinib; first compound 0.253 µM)	relative viability (KIN001-266 + Linsitinib; first compound 0.8 µM)	relative viability (KIN001-266 + Linsitinib; first compound 2.53 µM)	relative viability (KIN001-266 + Linsitinib; first compound 8 µM)	relative viability (KIN001-266 + OSI-027; first compound 0.08 µM)	relative viability (KIN001-266 + OSI-027; first compound 0.253 µM)	relative viability (KIN001-266 + OSI-027; first compound 2.53 µM)	relative viability (KIN001-266 + OSI-027; first compound 8 µM)	relative viability (KIN001-266 + Trametinib; first compound 0.08 µM)	relative viability (KIN001-266 + Trametinib; first compound 0.253 µM)	relative viability (KIN001-266 + Trametinib; first compound 0.8 µM)	relative viability (KIN001-266 + Trametinib; first compound 2.53 µM)	relative viability (KIN001-266 + Trametinib; first compound 8 µM)	relative viability (KIN001-266 + Lapatinib; first compound 0.08 µM)	relative viability (KIN001-266 + Lapatinib; first compound 0.253 µM)	relative viability (KIN001-266 + Lapatinib; first compound 0.8 µM)	relative viability (KIN001-266 + Lapatinib; first compound 2.53 µM)	relative viability (KIN001-266 + Lapatinib; first compound 8 µM)	relative viability (KIN001-266 + OSI-027; first compound 0.8 µM)
HCC-78	0.465	0.516	0.451	0.459	0.642	0.34	0.39	0.308	0.37	0.747	0.705	0.667	0.838	0.753	0.79	0.612	0.597	0.731	0.773	–
HCC-366	0.547	0.607	0.821	0.476	0.545	1.14	0.977	0.826	0.412	0.446	0.468	0.32	0.334	0.277	0.911	1.03	1	1.05	1.02	0.936
HCC-827	0.952	1.03	–	0.945	0.841	0.682	0.787	0.734	0.661	0.489	0.577	0.468	0.545	0.49	0.2	0.18	–	0.191	0.217	0.495
HOP-62	0.961	1.01	1.09	0.945	0.439	0.888	0.893	0.765	0.797	0.391	0.387	0.379	0.311	0.293	0.944	0.801	1.13	0.815	1.09	0.877
IA-LM	0.51	0.435	0.58	0.584	0.641	–	–	–	–	–	–	–	–	–	0.967	0.752	0.989	0.861	0.474	–
LC-2-ad	0.879	0.842	0.924	0.808	0.873	0.844	0.94	0.776	0.77	0.924	0.938	0.918	0.897	0.931	0.999	0.847	1.02	0.972	0.929	0.825
LCLC-97TM1	0.226	0.197	0.18	0.176	0.192	0.636	0.69	0.557	0.532	0.18	0.185	0.199	–	0.164	0.836	0.868	1.14	1.04	0.844	0.45
LCLC-103H	1.02	1.04	1.16	1.09	0.96	0.49	0.469	0.484	0.469	0.715	0.73	0.592	0.645	0.668	–	–	–	–	–	0.452
LK-2	0.583	0.603	0.64	0.516	0.655	0.215	0.187	0.168	0.222	0.891	0.781	0.877	0.847	0.721	1.06	0.836	0.884	0.834	1.05	0.199
LOU-NH91	0.968	0.952	0.652	0.896	0.73	0.753	0.76	0.608	0.546	0.83	0.753	0.698	0.727	0.748	0.854	0.751	0.711	0.689	0.745	0.434
NCI-H441	0.7	0.454	0.456	0.565	0.59	0.829	0.695	0.563	0.479	0.455	0.525	0.489	0.471	0.399	–	–	–	–	–	0.585
NCI-H522	–	–	–	–	–	0.879	0.74	0.659	0.659	0.78	0.907	0.797	0.638	0.706	–	–	–	–	–	0.677
NCI-H1299	0.955	0.984	1	0.946	0.899	–	–	–	–	–	–	–	–	–	0.918	0.959	0.902	0.854	0.855	–
NCI-H1563	1.16	1.22	1.25	1.16	1.1	0.794	0.745	0.758	0.756	–	–	–	–	–	1.05	1.1	0.968	0.922	0.835	0.875
NCI-H1648	–	–	–	–	–	0.28	0.256	0.257	0.273	0.564	0.508	0.552	0.46	0.61	–	–	–	–	–	0.273
NCI-H1650	–	–	–	–	–	0.872	0.786	0.397	0.337	0.581	0.602	0.42	0.457	0.373	0.881	0.873	0.826	0.641	0.42	0.507
NCI-H1703	0.786	0.493	1.11	0.488	0.747	–	–	–	–	–	–	–	–	–	1.02	0.947	1.25	0.87	0.532	–
NCI-H2170	–	–	–	–	–	0.734	0.769	0.639	0.719	0.969	0.872	0.96	0.934	0.822	0.29	0.268	0.266	0.247	0.255	0.708
NCI-H2342	–	–	–	–	–	0.607	0.626	0.708	0.754	0.922	0.868	0.848	1.01	1.22	–	–	–	–	–	0.564
SW 900	–	–	–	–	–	0.738	0.366	0.485	0.325	0.83	0.727	1.02	0.812	0.324	–	–	–	–	–	0.551
